From patent publication US9546201B2, “MUC-1 cytoplasmic domain peptides as inhibitors of cancer” (DANA-FARBER CANCER INSTITUTE, INC., priority 2008, dated 2017)
Entries after “also recorded” stand apart in the source; their conditions may differ. Where a SMILES comes first, the peptide text is derived from it. Where no end group is shown, it is not given here. [ ]: non-standard residue; d: D form.

Experiments:
ZR-75-1/MUC1siRNA cells = assay: Viable cell number by trypan blue exclusion, ZR-75-1/MUC1siRNA; type: cell-based, human; settings: 5 μM; MUC1 silenced
Procedure: FIGS. 4A-E. Selectivity of MUC1/CQC for MUC1 expressing breast cancer cells. (FIG. 4A) ZR-75-1 cells were stably infected with an empty lentivirus (vector) or one expressing a MUC1 siRNA. Lysates for the infected cells were immunoblotted with the indicated antibodies. (FIG. 4B) ZR-75-1/vector cells were left untreated (diamonds), and ZR-75-1/vector (squares) and ZR-75-1/MUC1siRNA (triangles) cells were treated with 5 μM MUC1/CQC peptide for the indicated times. Viable cell number was determined by trypan blue exclusion. (FIG. 4C) 293 cells were left untreated (diamonds), and treated with 5 μM MUC1/CQC (squares) or MUC1/AQA (triangles) for the indicated times. Viable cell number was determined by trypan blue exclusion. (FIG. 4D) MCF-10A cells were left untreated (left panel), and treated with 5 μM MUC1/CQC (middle panel) or MUC1/AQA (right panel). At 3 d, cells were analyzed for cell cycle distribution. […] Viable cell number was determined by trypan blue exclusion.
Human breast cancer ZR-75-1, ZR-75-1/vector, ZR-75-1/MUC1siRNA (Ren et al., 2004) cell lines were grown in RPMI1640 medium supplemented with 10% heat-inactivated fetal bovine serum (HI-FBS), 100 U/ml penicillin, and 100 μg/ml streptomycin (Invitrogen) in a humidified incubator at 37° C. and 5% CO2. […] Viability was determined by trypan blue exclusion. […]

His-MUC1-CD = molecular target: T1, His-MUC1-CD (Homo sapiens, UniProt P15941); assay: BIAcore binding to immobilized His-MUC1-CD; settings: data not shown
T1 sequence (P15941 1184-1255): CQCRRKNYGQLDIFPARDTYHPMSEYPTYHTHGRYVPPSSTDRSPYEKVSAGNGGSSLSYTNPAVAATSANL
Procedure: FIGS. 1A-D. MUC1/CQC peptide blocks MUC1 oligomerization. (FIG. 1A) Schematic representation of the MUC1-C subunit and the 72-amino acid sequence of MUC1-CD (SEQ ID NO: 1) are shown. The N-terminal 15 amino acids (shaded sequence; SEQ ID NO: 3) MUC1/CQC (SEQ ID NO: 63) and mutated MUC1/AQA (SEQ ID NO: 60) peptides were synthesized with the poly-dArg transduction domain. (FIG. 1B) His-MUC1-CD (1.4 mg/ml) was immobilized on a sensor chip in a BIAcore. MUC1/CQC was injected over the chip at 10 μM. Raw binding data were analyzed by BIAevaluation software version 3.0 and fit to a 1:1 Languir binding model. (FIG. 1C) Purified His-MUC1-CD (1.5 mg/ml) was incubated with PBS, 200 μM MUC1/CQC or 200 μM MUC1/AQA for 1 h at room temperature. The proteins were separated in a non-reducing SDS-polyacrylamide gel and analyzed by immunoblotting with anti-MUC1-C. (FIG. 1D) 293 cells were transiently transfected to express an empty vector or GFP-MUC1-CD and Flag-MUC1-CD. At 48 h after transfection, the cells were treated with 5 μM MUC1/CQC or MUC1/AQA for 3 d. The cells were then harvested for immunoblotting with anti-MUC1-C (left panel). […]
The MUC1 cytoplasmic domain (MUC1-CD) contains a CQC motif that is necessary for the formation of oligomers and nuclear localization (Leng et al., 2007). […] Purified His-tagged MUC1-CD forms oligomers as detected by electrophoresis in polyacrylamide gels (FIG. 1C). […]

| Compound | effect on growth (viable cell number) (ZR-75-1/MUC1siRNA cells) | binding to His-MUC1-CD (His-MUC1-CD) |
| --- | --- | --- |
| CC[C@H](C)[C@H](NC(=O)[C@H](CC(=O)O)NC(=O)[C@H](CC(C)C)NC(=O)[C@H](CCC(N)=O)NC(=O)CNC(=O)[C@H](Cc1ccc(O)cc1)NC(=O)[C@H](CC(N)=O)NC(=O)[C@H](CCCCN)NC(=O)[C@H](CCCNC(=N)N)NC(=O)[C@H](CCCNC(=N)N)NC(=O)[C@H](CS)NC(=O)[C@H](CCC(N)=O)NC(=O)[C@H](CS)NC(=O)[C@@H](CCCNC(=N)N)NC(=O)[C@@H](CCCNC(=N)N)NC(=O)[C@@H](CCCNC(=N)N)NC(=O)[C@@H](CCCNC(=N)N)NC(=O)[C@@H](CCCNC(=N)N)NC(=O)[C@@H](CCCNC(=N)N)NC(=O)[C@@H](CCCNC(=N)N)NC(=O)[C@@H](CCCNC(=N)N)NC(=O)[C@H](N)CCCNC(=N)N)C(=O)N[C@@H](Cc1ccccc1)C(=O)N1CCC[C@H]1C(=O)O [MUC1/CQC] (H-[dR][dR][dR][dR][dR][dR][dR][dR][dR]CQCRRKNYGQLDIFP-OH; N-terminus and C-terminus assumed) | substantially less effect; also recorded: abrogated the MUC1/CQC cytotoxic effects |  |
| MUC1/AQA: control peptide in which the CQC motif was altered to AQA, with poly-dArg transduction domain; SEQ ID NO: 60 ([dR][dR][dR][dR][dR][dR][dR][dR][dR]AQARRKNYGQLDIFP) [reference compound] |  | no apparent binding |
